# According to US11414429B2, “Compound or pharmaceutically acceptable salt thereof” (RIKEN, priority 2016, dated 2022):
# pIC50: −log10 of the molar value. Read-outs that look alike come from different tables or passages of the source.
# Key:
# tankyrase 1 (TNKS 1) = biological target: T1, tankyrase 1 (TNKS 1) (Homo sapiens, UniProt O95271); assay: Tankyrase inhibitory activity test (ELISA, self-polyADP ribosylation), tankyrase 1; format: biochemical; settings: tankyrase 1, ELISA, self-polyADP ribosylation; read-out: TNKS1 inhibitory activity (IC50 class)
# T1 construct: 1,024-1,327aa; made in house; host or cells: cell-free protein synthesis system
# T1 sequence (O95271 1024-1327): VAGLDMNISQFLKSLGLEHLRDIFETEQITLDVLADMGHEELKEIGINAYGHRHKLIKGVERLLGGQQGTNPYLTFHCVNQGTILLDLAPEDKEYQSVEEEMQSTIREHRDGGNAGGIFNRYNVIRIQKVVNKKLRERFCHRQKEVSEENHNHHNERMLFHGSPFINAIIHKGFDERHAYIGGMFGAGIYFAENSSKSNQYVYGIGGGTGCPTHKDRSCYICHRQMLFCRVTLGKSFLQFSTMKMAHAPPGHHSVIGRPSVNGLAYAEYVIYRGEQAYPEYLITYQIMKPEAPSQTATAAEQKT
# Method: (§1) (Test Example 1) Tankyrase Inhibitory Activity Test
# (§2) For each of the compounds obtained in Examples (the test target compounds), the tankyrase inhibitory activity (an inhibitory activity against tankyrase 1 (TNKS 1) and an inhibitory activity against tankyrase 2 (TNKS 2)) was evaluated by measuring the enzymatic activity of tankyrase 1 and the enzymatic activity of tankyrase 2 by the ELISA technique using self-polyADP ribosylation as an index. First, Flag-tag fusion tankyrase 1 (1,024-1,327aa, SAM+PARP) and tankyrase 2 (613-1, 116aa, ANK5+SAM+PARP) were each synthesized by a cell-free protein synthesis system and diluted with a Tris buffer (50 mM Tris-HCl (pH 8.0), 150 mM NaCl, 10% glycerol). Then, 50 μL of the diluted tankyrase 1 or tankyrase 2 was added to a plate on which the anti-FLAGM 2 monoclonal antibody was immobilized (Anti-FLAG high sensitivity M2 coated plate) (SIGMA Corporation), and was allowed to stand at 4° C. overnight. Thereafter, the plate was washed four times with a PBS buffer containing 0.1% Triton X-100 (PBST buffer).
# (§3) Subsequently, the test target compound diluted with an assay buffer (50 mM Tris-HCl (pH 8.0), 4 mM MgCl2, 0.2 mM DTT) (using DMSO as a control) was added to each well of the plate and was allowed to stand at room temperature for 10 minutes. Thereafter, a biotin-labeled NAD solution (225 μM NAD, 25 μM 6-Biotin-17-NAD (Trevigen Inc.)) was added as a donor substrate and mixed with the resultant test target compound, and the reaction was allowed to proceed at 30° C. for 45 minutes. Instead of the biotin-labeled NAD solution, distilled water was added to blank wells. After the reaction, the plate was washed four times with the PBST buffer. Thereafter, HRP (horseradish peroxidase)-labeled streptavidin (Trevigen Inc.) diluted 1,000-fold with the PBS buffer was added to each well, and the reaction was allowed to proceed at room temperature for 20 minutes. After the plate was washed four times with the PBST buffer, a chemiluminescent substrate solution TACS-Sapphire (Trevigen Inc.) was added to each well and the reaction was allowed to proceed at room temperature for 20 minutes. Then, the chemiluminescence intensity was measured using a chemiluminescence measuring apparatus.
# (§4) The residual enzyme activity in the presence of the test target compound was determined in accordance with the following formula. Based on the residual enzyme activity at multiple concentrations of the test target compound, an enzyme inhibition activity was calculated as a 50% inhibitory concentration (IC50 value) using data analysis software named Origin (LightStone Corp.).
# [1] = tested on: human colorectal cancer cell line, COLO-320DM; assay: Cell proliferation inhibitory activity test (Celltiter-Glo Luminescent Cell Viability Assay); format: cell-based; settings: COLO-320DM cells, 96 hours
# Method: (Test Example 2) Cell Proliferation Inhibitory Activity Test
# The cell proliferation inhibitory activity of the compound obtained in each of Examples against human colorectal cancer cell line, COLO-320DM was evaluated by Celltiter-Glo Luminescent Cell Viability Assay (Promega Corporation, G7573). The COLO-320 DM cells were cultured in a RPMI-1640 medium (Wako Pure Chemical Industries, Ltd., 189-02025) containing 10% fetal bovine serum and 2 mM of glutamine. The cultured cells were washed with PBS and then detached with trypsin/EDTA to prepare a cell solution containing 3×10^4 cells/mL.
# Next, the cell solution was seeded in a 96 well microplate (Thermo/Nunc, 136101) in an amount of 70 μL/well and was cultured overnight under conditions at 37° C. with 5% CO2. On the next day, 10 μL/well of a solution in which the test target compound (DMSO solution) was diluted with the cell culture medium (a final DMSO concentration of 1%) was added and the reaction was allowed to proceed under conditions at 37° C. with 5% CO2 for 96 hours (a 1% DMSO solution was used as a control). Subsequently, 80 μL/well of Celltiter-Glo Luminescent Cell Viability Assay reagent (Promega Corporation, G7573) was added, followed by agitation for 2 minutes with a shaker under shielding with aluminum foil. Thereafter, the resultant solution was allowed to stand for reaction at room temperature for 10 minutes.
# After that, the luminescent signal was measured with a luminometer (Biotech, Synergy). The cell proliferation inhibitory activity was evaluated by obtaining a percentage of a cell proliferation volume of each compound-added group with respect to a cell proliferation volume (100%) of a control group in which no test target component solution was added, and calculating a value of compound concentration (GI50) required to reduce the remaining cell volume to 50% of the remaining cell volume of the control. […] The results are shown in Tables 120 to 123 together with the results of the tankyrase inhibition activity test.
# tankyrase 2 (TNKS 2) = biological target: T2, tankyrase 2 (TNKS 2) (Homo sapiens, UniProt Q9H2K2); assay: Tankyrase inhibitory activity test (ELISA, self-polyADP ribosylation), tankyrase 2; format: biochemical; settings: tankyrase 2, ELISA, self-polyADP ribosylation; read-out: TNKS2 inhibitory activity (IC50 class)
# T2 construct: 613-1, 116aa; made in house; host or cells: cell-free protein synthesis system
# T2 sequence (Q9H2K2 613-1166): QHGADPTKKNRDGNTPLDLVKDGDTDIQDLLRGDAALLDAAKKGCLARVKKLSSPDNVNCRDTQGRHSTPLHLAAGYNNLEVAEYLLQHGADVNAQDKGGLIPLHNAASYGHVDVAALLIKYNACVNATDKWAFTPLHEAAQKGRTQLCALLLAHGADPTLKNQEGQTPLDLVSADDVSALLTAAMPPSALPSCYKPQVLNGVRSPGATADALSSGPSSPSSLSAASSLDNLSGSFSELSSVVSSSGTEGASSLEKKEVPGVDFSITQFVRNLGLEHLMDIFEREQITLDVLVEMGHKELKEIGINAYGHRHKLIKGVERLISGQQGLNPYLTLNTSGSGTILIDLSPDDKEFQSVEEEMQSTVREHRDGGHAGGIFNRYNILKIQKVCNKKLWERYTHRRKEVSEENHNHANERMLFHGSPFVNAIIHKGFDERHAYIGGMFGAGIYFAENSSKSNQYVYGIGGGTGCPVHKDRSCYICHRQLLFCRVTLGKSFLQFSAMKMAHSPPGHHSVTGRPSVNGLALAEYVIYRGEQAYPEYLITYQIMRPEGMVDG
# Method: as §1, §2, §3, §4
# [2] = read-out: COLO-320 DM cell proliferation inhibitory activity (GI50 class)
# [3] = class symbols, read-out: COLO-320 DM (cell proliferation inhibitory activity, GI50 value)
SMILES,pIC50 (tankyrase 1 (TNKS 1)),"GI50 [1, 2] [nM]",pIC50 (tankyrase 2 (TNKS 2)),"GI50 [1, 3] [nM]"
"CN(C)CCOc1cc(F)c2c(c1)C(=O)OC21CCN(c2nc3c(c(=O)[nH]2)CCCN3C)CC1 [Example 7, 5-[2-(dimethylamino)ethoxy]-7-fluoro-1′-(8-methyl-4-oxo-3,4,5,6,7,8-hexahydropyrido[2,3-d]pyrimidin-2-yl)-3H-spiro[isobenzofuran-1,4′-piperidin]-3-one]",> 7.70,600 to 1000,> 7.70,
"CN(C)C(=O)COc1cc(F)c2c(c1)C(=O)OC21CCN(c2nc3c(c(=O)[nH]2)CCCN3C)CC1 [Example 55, 2-{[7-fluoro-1′-(8-methyl-4-oxo-3,4,5,6,7,8-hexahydro-pyrido[2,3-d)pyrimidin-2-yl)-3-oxo-3H-spiro[isobenzo-furan-1,4′-piperidin)-5-yl)oxy}-N,N-dimethyl-acetamid]",> 7.70,600 to 1000,> 7.70,
"COc1cccc(CN2CC3(CCN(c4nc5c(c(=O)[nH]4)CCCC5)CC3)c3ccccc32)c1 [Example 99, 2-[1-(3-methoxy-benzyl)spiro[indoline-3,4′-piperidin]-1′-yl]-5,6,7,8-tetrahydroquinazolin-4(3H)-one]",6.70 to 7.70,600 to 1000,> 7.70,
"O=c1[nH]c(N2CCC3(CC2)CN(Cc2ccncc2)c2ccccc23)nc2c1CCCC2 [Example 100, 2-[1-(pyridin-4-ylmethyl)spiro[indoline-3,4′-piperidin]-1′-yl]-5,6,7,8-tetrahydroquinazolin-4(3H)-one]",> 7.70,600 to 1000,6.70 to 7.70,
"O=c1[nH]c(N2CCC3(CC2)CN(Cc2cccnc2)c2ccccc23)nc2c1CCCC2 [Example 101, 2-[1-(pyridin-3-ylmethyl)spiro[indoline-3,4′-piperidin]-1′-yl]-5,6,7,8-tetrahydroquinazolin-4(3H)-one]",6.70 to 7.70,600 to 1000,6.70 to 7.70,
"COc1ccc2c(c1)C1(CCN(c3nc4c(c(=O)[nH]3)CCCC4)CC1)CN2C [Example 147, 2-(5-methoxy-1-meth-ylspiro[indoline-3,4′-piperidin]-1′-yl)-5,6,7,8-tetrahydroquinazolin-4(3H)-one]",6.70 to 7.70,600 to 1000,> 7.70,
"CN1CCCc2c1nc(N1CCC3(CC1)C(=O)Nc1cccc(F)c13)[nH]c2=O [Example 185, 2-(4-fluoro-2-oxospiro [indoline-3,4′-piperidin]-1′-yl)-8-methyl-5,6,7,8-tetrahydro-pyrido[2,3-d] pyrimidine-4(3H)-one]",> 7.70,100 to 600,> 7.70,
"CCOC(=O)c1cc(Cl)c2c(c1)N(Cc1cccnc1)CC21CCN(c2nc3c(c(=O)[nH]2)CCCC3)CC1 [Example 193, ethyl 4-chloro-1′-(4-oxo-3,4,5,6,7,8-hexahydroquinazolin-2-yl)-1-(pyridin-3-yl) methylspiro [indoline-3,4′-piperidine]-6-carboxylate]",6.70 to 7.70,100 to 600,6.70 to 7.70,
"O=C(NCCN1CCOCC1)c1cc(Cl)c2c(c1)N(Cc1cccnc1)CC21CCN(c2nc3c(c(=O)[nH]2)CCCC3)CC1 [Example 196, 4-chloro-N-(2-morpho-linoethyl)-1′-(4-oxo-3,4,5,6,7,8-hexahydro-quinazolin-2-yl)-1-(pyridin-3-ylmethyl) spiro[indoline-3,4′-piperidine]-6-carboxamide]",> 7.70,600 to 1000,> 7.70,
"O=c1[nH]c(N2CCC3(CC2)CN(Cc2cccnc2)c2cc(Cl)ccc23)nc2c1CCCC2 [Example 218, 2-(6-chloro-1-(pyridin-3-ylmethyl)spiro [indoline-3,4′-piperidin]-1′-yl)-5,6,7,8-tetrahydro-quinazolin-4(3H)-one]",6.70 to 7.70,600 to 1000,> 7.70,
"O=c1[nH]c(N2CCC3(CC2)CN(Cc2cccnc2)c2cccc(Cl)c23)nc2c1CCCC2 [Example 221, 2-[4-chloro-1-(pyridin-3-yl)methylspiro [indoline-3,4′-piperidin] 1′-yl)-5,6,7,8-tetrahydro quinazolin-4(3H)-one]",> 7.70,100 to 600,> 7.70,
"O=C1N(Cc2cccnc2)c2cccc(Cl)c2C12CCN(c1nc3c(c(=O)[nH]1)CCCC3)CC2 [Example 226, 4-chloro-1′-(4-oxo-3,4,5,6,7,8-hexahydroquinazolin-2-yl)-1-(pyridin-3-ylmethyl) spiro [indoline-3,4′-piperidin]-2-one]",> 7.70,100 to 600,> 7.70,
"CN1C(=O)C2(CCN(c3nc4c(c(=O)[nH]3)CCCC4)CC2)c2c(Cl)cc(O)cc21 [Example 234, 4-chloro-6-hydroxy-1-methyl-1′-(4-oxo-3,4,5,6,7,8-hexahydro-quinazolin-2-yl)spiro [indoline-3,4′-piperidin]-2-one]",> 7.70,100 to 600,> 7.70,
"O=c1[nH]c(N2CCC3(CC2)CN(Cc2cccnc2)c2cc(F)cc(F)c23)nc2c1CCCC2 [Example 251, 2-[4,6-difluoro-1-(pyridin-3-yl)methyl-spiro [indoline-3,4′-piperidin]-1′-yl]-5,6,7,8-tetrahydro-quinazolin-4(3H)-one]",> 7.70,100 to 600,> 7.70,
"O=c1[nH]c(N2CCC3(CC2)CN(Cc2cncnc2)c2cc(F)cc(F)c23)nc2c1CCCC2 [Example 252, 2-[4,6-difluoro-1-(pyrimidin-5-yl)methyl-spiro [indoline-3,4′-piperidin]-1′-yl]-5,6,7,8-tetrahydro-quinazolin-4(3H)-one]",> 7.70,100 to 600,> 7.70,
CN1CCCc2c1nc(N1CCC3(CC1)C(=O)N(CC(F)(F)F)c1cc(OCC(=O)O)cc(F)c13)[nH]c2=O [Example 408],,,,< 100
"CN1CCCc2c1nc(N1CCC3(CC1)C(=O)N(C)c1c(OC4CCOC4)ccc(Cl)c13)[nH]c2=O (stereo not drawn) [Example 433, 4-chloro-1′-(4-hydroxy-8-methyl-6,7-dihydro-5H-pyrido[2,3-d]pyrimidin-2-yl)-1-methyl-7-(oxolan-3-yloxy) spiro[indole-3,4′-piperidin]-2-one]",,,,< 100
"CN1CCCc2c1nc(N1CCC3(CC1)C(=O)N(C)c1cc(C4CCC(O)CC4)cc(F)c13)[nH]c2=O (stereo not drawn) [Example 468, 4-fluoro-6-(4-hydroxycyclohexyl)-1-methyl-1′-(8-methyl-4-oxo-3,4,5,6,7,8-hexahydropyrido[2,3-d]pyrimidin-2-yl)spiro[indole-3,4′-piperidine]-2(1H)-one]",,,,< 100
